Values of other authors, collected in patent publication US20080181937A1, “DOSAGE REGIMEN AND MEDICAMENT FOR GUARDING MEMORY AND BRAIN HEALTH AND FOR PREVENTING OR REDUCING RISK OF ONSET OF DEMENTIA BY ADMINISTRATION OF SPECIFIC VITAMINS AND SUPPLEMENTS (MEMOGUARD)” (priority 2007, published 2008).

Assays:
[1] = tested on: patients with marked memory loss at risk for developing Alzheimer's disease
[2] = tested on: animal model of rheumatoid arthritis
[3] = tested on: normal healthy subjects and the elderly; settings: fish 2-3 times a week or supplements
[4] = tested on: amyloid; settings: in vivo
[5] = tested on: elderly patients

COc1cc2c(cc1OC)C(=O)C(CC1CCN(Cc3ccccc3)CC1)C2 (centres unmarked) [Aricept]
prevention of the onset of Alzheimer's disease [1]: Neither of these drugs were shown to significantly prevent the onset

COc1cc(/C=C/C(=O)CC(=O)/C=C/c2ccc(O)c(OC)c2)ccc1O [Curcumin]
inflammation [2]: can reduce inflammation

CC/C=C\C/C=C\C/C=C\C/C=C\C/C=C\C/C=C\CCC(=O)O [DHA]
memory and attention ([3]; normal healthy subjects): increases memory and attention | risk of Alzheimer's ([3]; the elderly): significantly lowers the risk of Alzheimer's | amount of amyloid in the brain [4]: can reduce the amount of amyloid in the brain

COc1ccc2c3c1O[C@H]1C[C@@H](O)C=C[C@@]31CCN(C)C2 [Razadyne]
prevention of the onset of Alzheimer's disease [1]: Neither of these drugs were shown to significantly prevent the onset

CC(C)Cc1ccc(C(C)C(=O)O)cc1 (centres unmarked) [ibuprofen]
incidence of Alzheimer's disease ([5]; observational studies, individuals taking NSAID's): lower incidence of Alzheimer's disease

vitamin E
transfer to a nursing home ([5]; patients with cognitive impairment or dementia): can even delay transfer to a nursing home
